Measurements published in patent US20250092111A1, “POTENT AND STABLE POLYPEPTIDE ANALOGUES VIA SERINE/THREONINE LIGATION” (UNIVERSITY OF WASHINGTON, priority 2022, published 2025).

Tested on: mouse model of glucose disposal
Test: Glucose tolerance test (GTT) in vivo
Details: standard glucose tolerance test, data not shown
Description: Given the promising activation and stability data, the peptides were tested in vivo using a standard glucose tolerance test (GTT).

Question: Which “glucose disposal efficiency compared to unmodified GLP-1” value does the source give for CCCCCCCCCCCCCCCCCCOCCOCCOCCOCCOCCC(=O)N[C@@H](CO)C(=O)NCCCC[C@H](NC(=O)[C@H](CO)NC(=O)[C@@H](NC(=O)[C@H](CC(=O)O)NC(=O)[C@H](CO)NC(=O)[C@@H](NC(=O)[C@H](Cc1ccccc1)NC(=O)[C@@H](NC(=O)CNC(=O)[C@H](CCC(=O)O)NC(=O)[C@H](C)NC(=O)[C@@H](N)Cc1c[nH]cn1)[C@@H](C)O)[C@@H](C)O)C(C)C)C(=O)N[C@@H](Cc1ccc(O)cc1)C(=O)N[C@@H](CC(C)C)C(=O)N[C@@H](CCC(=O)O)C(=O)NCC(=O)N[C@@H](CCC(N)=O)C(=O)N[C@@H](C)C(=O)N[C@@H](C)C(=O)N[C@@H](CCCCN)C(=O)N[C@@H](CCC(=O)O)C(=O)N[C@@H](Cc1ccccc1)C(=O)N[C@H](C(=O)N[C@@H](C)C(=O)N[C@@H](Cc1c[nH]c2ccccc12)C(=O)N[C@@H](CC(C)C)C(=O)N[C@H](C(=O)N[C@@H](CCCCN)C(=O)NCC(=O)N[C@@H](CCCNC(=N)N)C(=O)NCC(=O)O)C(C)C)[C@@H](C)CC [Peptide G2] here?
Answer: improved glucose disposal efficiency
